# Results from patent publication US20130336940A1, “MODIFIED PIG ISLETS FOR DIABETES TREATMENT” (UNIVERSITE CATHOLIQUE DE LOUVAIN, priority 2011, published 2013).
# What was measured:
# isolated pig islets = assay: In vitro islet functionality (24 hr incubation at G5, G15, G15+Fsk; insulin/glucagon RIA); type: cell-based; conditions: for G15/G5 ratio of insulin secretion: native islets 1.16; for glucagon content, fold vs native islets: 50 mg/kg treated islets; for insulin secretion, fold vs 50 mg/kg treated islets / insulin secretion, fold vs native islets: islets from pigs treated with 30 mg/kg STZ; for glucagon secretion, fold in comparison to 0 mg/kg / glucagon secretion, fold in comparison to 30 mg/kg: islets from pigs treated with 50 mg/kg STZ
# Protocol: The following steps were performed with the samples kept on ice. […] The samples were then sonicated 4×20 seconds (Sonifier B 12 [Branson Sonic Power Company, Danbury, Conn., USA]) and centrifugated 10 minutes at 4° C. at 1500 rpm. The first supernatant formed was removed and kept at −20° C. […] The samples were then kept at −20° C. overnight. After a step of centrifugation 10 minutes at 4° C. at 1500 rpm, the second supernatant was removed and kept at −20° C. […] The three supernatants were then pooled and constituted the pancreas extract. Human insulin specific RIA KIT and Glucagon RIA KIT (Millipore, Billerica, Mass., USA) were used for the determination of the hormonal content in human/pig pancreatic extractions as well as in isolated islets (see below). The content of insulin and glucagon in the extracts was performed following the instructions of the manufacturer. […] After incubation overnight at room temperature, 1 mL of precipitating reagent were added, followed by incubation 20 minutes at 4° C. The samples were then centrifuged 20 minutes at 2000-3000×g at 4° C.
# Three replicates per concentration were performed. Media were thereafter recovered for insulin and glucagon quantification and islets were transferred in acid-ethanol for hormones extraction and quantification by radioimmuno-assay (see above).
# pig pancreas = assay: Pancreatic hormonal content for insulin/glucagon (RIA) after STZ; type: in vivo
# Protocol: Five doses (0, 30, 50, 75, 100 mg/kg) of filter-sterilized Streptozotocin (STZ) (Sigma, Bornem, Belgium) were tested. STZ was solubilised in citrate buffer (25% v/v Na citrate, 23% v/v citric acid, 52% v/v H2O, pH 4.5) and filtered before injection in the external jugular vein (Dufrane, Transplantation, 2006).
# For pancreatic hormonal content, insulin and glucagon were first extracted from small biopsies of pancreas taken in the 3 zones (head, body, tail) before being quantified by radio immuno assay (RIA).
# For the extraction, ˜1 g of pancreas was cut into small fragments (˜1-2 mm^3) and 5 mL of a solution composed of 75.75% CH3CH2OH, 24.22% H2O, 0.03% HCl were added. The following steps were performed with the samples kept on ice. Samples were mixed (Ultra-Turrax T25 [Janke & Kunkel IKA—Labortechnik, Staufen, Germany]) for 20 seconds 4 times and 5 mL of a solution of 75% CH3CH2OH, 22% H2O, 3% HCl were added to the mixture. The samples were then sonicated 4×20 seconds (Sonifier B 12 [Branson Sonic Power Company, Danbury, Conn., USA]) and centrifugated 10 minutes at 4° C. at 1500 rpm. The first supernatant formed was removed and kept at −20° C. 2 mL of a solution of 75% CH3CH2OH, 23.5% H2O, 1.5% HCl were added to the precipitate and a second step of sonication was performed. The samples were then kept at −20° C. overnight. After a step of centrifugation 10 minutes at 4° C. at 1500 rpm, the second supernatant was removed and kept at −20° C. Thereafter, 2 mL of a solution of 75% CH3CH2OH, 23.5% H2O, 1.5% HCl were added to the precipitate and the mixture was sonicated and centrifuged 10 minutes at 4° C. at 1500 rpm and the third supernatant removed. The three supernatants were then pooled and constituted the pancreas extract. […] The supernatants were immediately removed and the contents of insulin and glucagon were determined by a Wallac Wizard 1470 Automatic gamma counter (GMI Inc, Ramsey, Minn., USA) for 1 minute.
compound,measurement,setting,value
"CN(N=O)C(=O)N[C@H]1C(O)O[C@H](CO)[C@@H](O)[C@@H]1O (mixture of isomers) [STZ, Streptozotocin]",stimulation index increase in comparison to native islets,isolated pig islets; 30 mg/kg STZ,45%
same,G15/G5 ratio of insulin secretion,isolated pig islets; 30 mg/kg STZ-treated islets,1.68
same,"insulin content, times more than native islets","isolated pig islets; 30 mg/kg STZ, G5 stimulation",3.3 times
same,"insulin content, times more than native islets","isolated pig islets; 30 mg/kg STZ, G15 stimulation",2.5 times
same,stimulation index increase in comparison to native islets,isolated pig islets; 50 mg/kg STZ,28%
same,G15/G5 ratio of insulin secretion,isolated pig islets; 50 mg/kg STZ-treated islets,1.49
same,"insulin content, times higher than native islets","isolated pig islets; 50 mg/kg STZ, G5 stimulation",1.5 times
same,insulin secretion increase in comparison with native pig islets,"isolated pig islets; 50 mg/kg STZ, G5 stimulation",1.3 times
same,"insulin content, times higher than native islets","isolated pig islets; 50 mg/kg STZ, G15 stimulation",1.4 times
same,insulin secretion increase in comparison with native pig islets,"isolated pig islets; 50 mg/kg STZ, G15 stimulation",1.4 times
same,"glucagon content, fold vs native islets",isolated pig islets; G5,7.9 ×
same,"glucagon content, fold vs native islets",isolated pig islets; G15 stimulation,10.4 ×
same,increase of the secretion of glucagon by isolated pig islets,isolated pig islets; after 30-50 mg/kg STZ,1.3 to 3.0 ×
same,increase of insulin release,isolated pig islets; islet remodeling with low doses of STZ,1.29 to 2.13 ×
same,"glucagon content, times higher than native islets","isolated pig islets; islets from 30 mg/kg treated pigs, G5-G15 stimulations",4.4 times
same,"insulin secretion, fold vs 50 mg/kg treated islets",isolated pig islets; G5 stimulation,1.6 ×
same,"insulin secretion, fold vs native islets",isolated pig islets; G5 stimulation,2.1 ×
same,"insulin secretion, fold vs 50 mg/kg treated islets",isolated pig islets; G15 stimulation,1.5 ×
same,"insulin secretion, fold vs native islets",isolated pig islets; G15 stimulation,2.1 ×
same,"glucagon secretion, fold in comparison to 0 mg/kg",isolated pig islets; G5 stimulation,2.5 ×
same,"glucagon secretion, fold in comparison to 30 mg/kg",isolated pig islets; G5 stimulation,2.0 ×
same,"glucagon secretion, fold in comparison to 0 mg/kg",isolated pig islets; G15 stimulation,3.0 ×
same,"glucagon secretion, fold in comparison to 30 mg/kg",isolated pig islets; G15 stimulation,1.6 ×
same,theoretical reduction of the pancreatic insulin content,"pig pancreas; STZ 30 mg/kg, by linear regression",30%
same,"pancreatic glucagon content, humans vs treated pigs","pig pancreas; STZ 30/50/75 mg/kg, 3 months post-STZ treatment",higher in humans
same,pancreatic insulin content,pig pancreas; STZ 75-100 mg/kg,significant reduction
